Source: ChEMBL document CHEMBL4308841, “Synthesis, in vitro antiproliferative activity, and kinase inhibitory effects of pyrazole-containing diarylureas and diarylamides” (Eur J Med Chem, 2018)

Columns and labels:
NCI-H522 = assay: Growth inhibition of human NCI-H522 cells assessed as cell growth at 10 uM incubated for 48 hrs by sulforhodamine B assay relative to control; assay type: functional; conditions: NCI-H522, 48 h, read-out: Activity
NCI-H460 = assay: Growth inhibition of human NCI-H460 cells incubated for 48 hrs by sulforhodamine B assay; assay type: functional, cell-based; conditions: NCI-H460, 48 h
SNB-19 = assay: Growth inhibition of human SNB19 cells incubated for 48 hrs by sulforhodamine B assay; assay type: functional, cell-based; conditions: SNB-19, 48 h
OVCAR-3 = assay: Growth inhibition of human OVCAR3 cells incubated for 48 hrs by sulforhodamine B assay; assay type: functional, cell-based; conditions: OVCAR-3, 48 h
OVCAR-4 = assay: Growth inhibition of human OVCAR4 cells incubated for 48 hrs by sulforhodamine B assay; assay type: functional, cell-based; conditions: OVCAR-4, 48 h
SK-OV-3 = assay: Growth inhibition of human SKOV3 cells incubated for 48 hrs by sulforhodamine B assay; assay type: functional, cell-based; conditions: SK-OV-3, 48 h
RXF 393 = assay: Growth inhibition of human RXF393 cells incubated for 48 hrs by sulforhodamine B assay; assay type: functional, cell-based; conditions: RXF 393, 48 h
DU-145 [1] = assay: Growth inhibition of human DU145 cells incubated for 48 hrs by sulforhodamine B assay; assay type: functional, cell-based; conditions: DU-145, 48 h
KM12 [2] = assay: Growth inhibition of human KM12 cells assessed as cell growth at 0.01 uM incubated for 48 hrs by sulforhodamine B assay relative to control; assay type: functional; conditions: KM12, 48 h, read-out: Activity
SW-620 = assay: Growth inhibition of human SW620 cells assessed as cell growth at 0.01 uM incubated for 48 hrs by sulforhodamine B assay relative to control; assay type: functional; conditions: SW-620, 48 h, read-out: Activity
SF-268 = assay: Growth inhibition of human SF268 cells assessed as cell growth at 0.01 uM incubated for 48 hrs by sulforhodamine B assay relative to control; assay type: functional; conditions: SF-268, 48 h, read-out: Activity
SF-295 = assay: Growth inhibition of human SF295 cells assessed as cell growth at 0.01 uM incubated for 48 hrs by sulforhodamine B assay relative to control; assay type: functional; conditions: SF-295, 48 h, read-out: Activity
M14 = assay: Growth inhibition of human M14 cells assessed as cell growth at 0.01 uM incubated for 48 hrs by sulforhodamine B assay relative to control; assay type: functional; conditions: M14, 48 h, read-out: Activity
K562 = assay: Growth inhibition of human K562 cells assessed as cell growth at 0.1 uM incubated for 48 hrs by sulforhodamine B assay relative to control; assay type: functional; conditions: K562, 48 h, read-out: Activity
KM12 [3] = assay: Growth inhibition of human KM12 cells assessed as cell growth at 0.1 uM incubated for 48 hrs by sulforhodamine B assay relative to control; assay type: functional; conditions: KM12, 48 h, read-out: Activity
SF-539 = assay: Growth inhibition of human SF539 cells assessed as cell growth at 0.1 uM incubated for 48 hrs by sulforhodamine B assay relative to control; assay type: functional; conditions: SF-539, 48 h, read-out: Activity
SNB-75 = assay: Growth inhibition of human SNB75 cells assessed as cell growth at 0.1 uM incubated for 48 hrs by sulforhodamine B assay relative to control; assay type: functional; conditions: SNB-75, 48 h, read-out: Activity
OVCAR-8 = assay: Growth inhibition of human OVCAR8 cells assessed as cell growth at 0.1 uM incubated for 48 hrs by sulforhodamine B assay relative to control; assay type: functional; conditions: OVCAR-8, 48 h, read-out: Activity
DU-145 [4] = assay: Growth inhibition of human DU145 cells assessed as cell growth at 0.1 uM incubated for 48 hrs by sulforhodamine B assay relative to control; assay type: functional; conditions: DU-145, 48 h, read-out: Activity
MDA-MB-468 = assay: Growth inhibition of human MDA-MB-468 cells assessed as cell growth at 0.1 uM incubated for 48 hrs by sulforhodamine B assay relative to control; assay type: functional; conditions: MDA-MB-468, 48 h, read-out: Activity
NCI-H23 = assay: Growth inhibition of human NCI-H23 cells assessed as cell growth at 1 uM incubated for 48 hrs by sulforhodamine B assay relative to control; assay type: functional; conditions: NCI-H23, 48 h, read-out: Activity
COLO 205 = assay: Growth inhibition of human COLO205 cells assessed as cell growth at 1 uM incubated for 48 hrs by sulforhodamine B assay relative to control; assay type: functional; conditions: COLO 205, 48 h, read-out: Activity
HT-29 = assay: Growth inhibition of human HT-29 cells assessed as cell growth at 1 uM incubated for 48 hrs by sulforhodamine B assay relative to control; assay type: functional; conditions: HT-29, 48 h, read-out: Activity
PC-3 = assay: Growth inhibition of human PC3 cells assessed as cell growth at 1 uM incubated for 48 hrs by sulforhodamine B assay relative to control; assay type: functional; conditions: PC-3, 48 h, read-out: Activity
BT-549 = assay: Growth inhibition of human BT549 cells assessed as cell growth at 1 uM incubated for 48 hrs by sulforhodamine B assay relative to control; assay type: functional; conditions: BT-549, 48 h, read-out: Activity
RPMI-8226 = assay: Growth inhibition of human RPMI8226 cells assessed as cell growth at 100 uM incubated for 48 hrs by sulforhodamine B assay relative to control; assay type: functional; conditions: RPMI-8226, 48 h, read-out: Activity
SK-MEL-28 = assay: Growth inhibition of human SK-MEL-28 cells assessed as cell growth at 100 uM incubated for 48 hrs by sulforhodamine B assay relative to control; assay type: functional; conditions: SK-MEL-28, 48 h, read-out: Activity
CAKI-1 = assay: Growth inhibition of human Caki1 cells assessed as cell growth at 100 uM incubated for 48 hrs by sulforhodamine B assay relative to control; assay type: functional; conditions: CAKI-1, 48 h, read-out: Activity
[5] = read-out: LC50 (the source's name)
[6] = read-out: pLC50 (the source's name) (converted)

O=C(Nc1cccc(-n2cc(-c3ccncc3)c(-c3cc(O)cc(Cl)c3)n2)c1)c1ccc(N2CCOCC2)c(C(F)(F)F)c1
growth at 10 µM (NCI-H522): 18.8% | GI50 (NCI-H460; read-out: GI50): 0.797 µM | CC50 (NCI-H460; [5]): > 100 µM | TGI (NCI-H460; read-out: TGI): 34.8 µM | GI50 (NCI-H460; read-out: pGI50 (converted)): 0.794 µM | CC50 (NCI-H460; [6]): > 100 µM | TGI (NCI-H460; read-out: pTGI (converted)): 3.55 µM | GI50 (SNB-19; read-out: GI50): 3.33 µM | CC50 (SNB-19; [5]): > 100 µM | TGI (SNB-19; read-out: TGI): 33.8 µM | GI50 (SNB-19; read-out: pGI50 (converted)): 3.31 µM | CC50 (SNB-19; [6]): > 100 µM | TGI (SNB-19; read-out: pTGI (converted)): 33.9 µM | IC50 (OVCAR-3): 7.2 µM | GI50 (OVCAR-3; read-out: GI50): 7.2 µM | CC50 (OVCAR-3; [5]): > 100 µM | TGI (OVCAR-3; read-out: TGI): > 100 µM | GI50 (OVCAR-3; read-out: pGI50 (converted)): 7.24 µM | CC50 (OVCAR-3; [6]): > 100 µM | TGI (OVCAR-3; read-out: pTGI (converted)): > 100 µM | GI50 (OVCAR-4; read-out: GI50): > 100 µM | CC50 (OVCAR-4; [5]): > 100 µM | TGI (OVCAR-4; read-out: TGI): > 100 µM | GI50 (OVCAR-4; read-out: pGI50 (converted)): > 100 µM | CC50 (OVCAR-4; [6]): > 100 µM | TGI (OVCAR-4; read-out: pTGI (converted)): > 100 µM | GI50 (SK-OV-3; read-out: GI50): 95.3 µM | CC50 (SK-OV-3; [5]): > 100 µM | TGI (SK-OV-3; read-out: TGI): > 100 µM | GI50 (SK-OV-3; read-out: pGI50 (converted)): 9.55 µM | CC50 (SK-OV-3; [6]): > 100 µM | TGI (SK-OV-3; read-out: pTGI (converted)): > 100 µM | LC50 (RXF 393): > 100 µM | GI50 (RXF 393; read-out: GI50): 0.303 µM | TGI (RXF 393; read-out: TGI): 19 µM | GI50 (RXF 393; read-out: pGI50 (converted)): 0.302 µM | TGI (RXF 393; read-out: pTGI (converted)): 1.91 µM | GI50 (DU-145 [1]; read-out: GI50): 5.55 µM | CC50 (DU-145 [1]; [5]): > 100 µM | TGI (DU-145 [1]; read-out: TGI): > 100 µM | GI50 (DU-145 [1]; read-out: pGI50 (converted)): 5.62 µM | CC50 (DU-145 [1]; [6]): > 100 µM | TGI (DU-145 [1]; read-out: pTGI (converted)): > 100 µM | growth at 0.01 µM (KM12 [2]): 105% | growth at 0.01 µM (SW-620): 103% | growth at 0.01 µM (SF-268): 101% | growth at 0.01 µM (SF-295): 97% | growth at 0.01 µM (M14): 95% | growth at 0.1 µM (K562): 100% | growth at 0.1 µM (KM12 [3]): 105% | growth at 0.1 µM (SF-539): 93% | growth at 0.1 µM (SNB-75): 83% | growth at 0.1 µM (OVCAR-8): 101% | growth at 0.1 µM (DU-145 [4]): 108% | growth at 0.1 µM (MDA-MB-468): 54% | growth at 1 µM (NCI-H23): 92% | growth at 1 µM (COLO 205): 100% | growth at 1 µM (HT-29): 94% | growth at 1 µM (PC-3): 51% | growth at 1 µM (BT-549): 75% | growth at 100 µM (RPMI-8226): -32% | growth at 100 µM (SK-MEL-28): -22% | growth at 100 µM (CAKI-1): -32%

COc1cc(Cl)cc(-c2nn(-c3cccc(NC(=O)c4ccc(Cl)c(Cl)c4)c3)cc2-c2ccncc2)c1
growth at 10 µM (NCI-H522): 53.7%
